Assay results published in ChEMBL document CHEMBL3886983, “Pyridinyl and pyrimidinyl sulfoxide and sulfone derivatives” (2016).
pIC50: −log10 of the molar value.

Target: Nicotinamide phosphoribosyltransferase (Homo sapiens, UniProt P43490)
Assay: Biochemical Inhibition Assay: The NAMPT Enzymatic Reaction. The NAMPT enzymatic reactions were carried out in Buffer A (50 mM Hepes pH 7.5, 50 mM NaCl, 5 mM MgCl2, and 1 mM THP) in 96-well V-bottom plates. The compound titrations were performed in a separate dilution plate by serially diluting the compounds in DMSO to make a 100x stock. Buffer A (89 uL) containing 33 nM of NAMPT protein was added to 1 uL of 100x compound plate containing controls (e.g. DMSO or blank). The compound and enzyme mixture was incubated for 15 min at rt, then 10 uL of 10x substrate and co-factors in Buffer A were added to the test well to make a final concentration of 1 uM NAM, […] 5-Phospho-D-ribose 1-diphosphate (PRPP), and 2.5 mM Adenosine 5'-triphosphate (ATP). The reaction was allowed to proceed for 30 min at rt, then was quenched with the addition of 11 uL of a solution of formic acid and L-Cystathionine to make a final concentration of 1% formic acid and 10 uM L-Cystathionine. Background and signal strength was determined by addition (or non-addition) of a serial dilution of NMN to a pre-quenched enzyme and cofactor mix.

Nicotinamide phosphoribosyltransferase, sequence (P43490 whole entry): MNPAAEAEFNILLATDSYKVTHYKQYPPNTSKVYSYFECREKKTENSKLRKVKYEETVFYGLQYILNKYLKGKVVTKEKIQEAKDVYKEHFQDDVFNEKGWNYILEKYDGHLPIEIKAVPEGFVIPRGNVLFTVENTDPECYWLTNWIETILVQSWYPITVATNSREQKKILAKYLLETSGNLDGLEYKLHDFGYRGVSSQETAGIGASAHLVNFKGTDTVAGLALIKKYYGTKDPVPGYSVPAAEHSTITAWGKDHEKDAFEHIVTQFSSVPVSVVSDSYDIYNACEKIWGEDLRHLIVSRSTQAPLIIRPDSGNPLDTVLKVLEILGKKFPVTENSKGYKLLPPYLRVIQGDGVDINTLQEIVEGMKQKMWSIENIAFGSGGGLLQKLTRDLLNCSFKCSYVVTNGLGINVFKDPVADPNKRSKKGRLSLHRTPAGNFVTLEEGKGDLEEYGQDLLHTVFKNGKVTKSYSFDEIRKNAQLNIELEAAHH

- pIC50: 9.04
SMILES: CN1CCN(c2ccc(S(=O)(=O)c3ccc(CNC(=O)c4cc5ccncc5o4)nc3)cn2)CC1
